These results are taken from PMC3228837 (Journal of medicinal chemistry, 2011).

The target in one assay is NaV1.6 (Mus musculus, UniProt Q9WTU3). Type of assay: cell-based.
In the next assay the target is NaV1.2 (Rattus norvegicus, UniProt P04775). Type of assay: cell-based.
Sequence of NaV1.2 (P04775 whole entry, looked up): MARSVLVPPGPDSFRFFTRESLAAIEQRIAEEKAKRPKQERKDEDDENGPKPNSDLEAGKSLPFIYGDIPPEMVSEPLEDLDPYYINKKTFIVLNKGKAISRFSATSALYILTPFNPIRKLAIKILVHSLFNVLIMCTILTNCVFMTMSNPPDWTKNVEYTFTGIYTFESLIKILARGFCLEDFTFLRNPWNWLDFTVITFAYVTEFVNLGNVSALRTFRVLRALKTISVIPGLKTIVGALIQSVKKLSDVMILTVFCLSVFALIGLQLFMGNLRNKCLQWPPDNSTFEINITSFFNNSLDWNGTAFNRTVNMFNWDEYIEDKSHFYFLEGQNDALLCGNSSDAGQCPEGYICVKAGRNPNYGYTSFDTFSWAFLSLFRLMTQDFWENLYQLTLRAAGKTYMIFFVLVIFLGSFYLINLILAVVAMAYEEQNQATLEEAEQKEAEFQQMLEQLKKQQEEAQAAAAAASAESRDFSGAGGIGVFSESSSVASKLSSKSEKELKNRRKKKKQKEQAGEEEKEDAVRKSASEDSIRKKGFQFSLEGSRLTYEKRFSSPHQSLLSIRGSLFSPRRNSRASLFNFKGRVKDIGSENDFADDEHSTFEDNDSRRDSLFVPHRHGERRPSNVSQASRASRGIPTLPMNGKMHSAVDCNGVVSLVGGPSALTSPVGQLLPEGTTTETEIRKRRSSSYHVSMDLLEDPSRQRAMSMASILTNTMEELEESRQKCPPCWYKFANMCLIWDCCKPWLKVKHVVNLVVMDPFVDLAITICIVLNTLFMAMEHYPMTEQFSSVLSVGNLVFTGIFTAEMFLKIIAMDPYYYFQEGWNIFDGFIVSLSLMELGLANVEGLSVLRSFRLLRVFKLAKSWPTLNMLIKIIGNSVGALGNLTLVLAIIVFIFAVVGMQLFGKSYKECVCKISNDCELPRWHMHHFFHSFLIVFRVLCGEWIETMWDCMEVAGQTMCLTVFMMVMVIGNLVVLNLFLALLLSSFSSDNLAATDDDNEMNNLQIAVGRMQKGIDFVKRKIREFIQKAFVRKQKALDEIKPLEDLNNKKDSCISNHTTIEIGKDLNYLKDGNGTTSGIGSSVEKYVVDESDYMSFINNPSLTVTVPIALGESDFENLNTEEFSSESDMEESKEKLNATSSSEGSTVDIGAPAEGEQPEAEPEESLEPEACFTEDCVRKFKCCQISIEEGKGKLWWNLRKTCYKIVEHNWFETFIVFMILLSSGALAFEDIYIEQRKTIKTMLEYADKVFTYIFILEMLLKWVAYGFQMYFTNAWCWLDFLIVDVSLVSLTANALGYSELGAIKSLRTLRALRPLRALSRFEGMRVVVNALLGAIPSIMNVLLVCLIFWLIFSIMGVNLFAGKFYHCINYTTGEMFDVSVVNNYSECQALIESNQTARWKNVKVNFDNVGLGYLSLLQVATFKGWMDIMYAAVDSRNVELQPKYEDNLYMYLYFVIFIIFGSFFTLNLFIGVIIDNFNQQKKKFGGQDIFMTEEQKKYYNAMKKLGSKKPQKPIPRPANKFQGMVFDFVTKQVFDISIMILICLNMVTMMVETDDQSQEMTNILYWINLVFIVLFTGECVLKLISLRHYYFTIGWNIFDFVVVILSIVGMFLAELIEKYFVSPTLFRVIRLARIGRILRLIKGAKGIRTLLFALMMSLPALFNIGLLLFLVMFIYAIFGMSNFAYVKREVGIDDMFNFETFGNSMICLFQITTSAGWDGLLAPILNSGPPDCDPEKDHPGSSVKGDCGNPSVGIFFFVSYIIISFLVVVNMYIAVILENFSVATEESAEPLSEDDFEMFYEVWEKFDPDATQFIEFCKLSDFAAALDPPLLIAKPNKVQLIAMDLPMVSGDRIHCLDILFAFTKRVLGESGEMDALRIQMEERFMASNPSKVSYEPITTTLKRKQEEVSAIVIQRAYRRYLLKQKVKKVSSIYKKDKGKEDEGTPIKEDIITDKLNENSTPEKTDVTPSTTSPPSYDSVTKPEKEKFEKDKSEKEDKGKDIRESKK

Sequence of NaV1.6 (Q9WTU3 whole entry, looked up): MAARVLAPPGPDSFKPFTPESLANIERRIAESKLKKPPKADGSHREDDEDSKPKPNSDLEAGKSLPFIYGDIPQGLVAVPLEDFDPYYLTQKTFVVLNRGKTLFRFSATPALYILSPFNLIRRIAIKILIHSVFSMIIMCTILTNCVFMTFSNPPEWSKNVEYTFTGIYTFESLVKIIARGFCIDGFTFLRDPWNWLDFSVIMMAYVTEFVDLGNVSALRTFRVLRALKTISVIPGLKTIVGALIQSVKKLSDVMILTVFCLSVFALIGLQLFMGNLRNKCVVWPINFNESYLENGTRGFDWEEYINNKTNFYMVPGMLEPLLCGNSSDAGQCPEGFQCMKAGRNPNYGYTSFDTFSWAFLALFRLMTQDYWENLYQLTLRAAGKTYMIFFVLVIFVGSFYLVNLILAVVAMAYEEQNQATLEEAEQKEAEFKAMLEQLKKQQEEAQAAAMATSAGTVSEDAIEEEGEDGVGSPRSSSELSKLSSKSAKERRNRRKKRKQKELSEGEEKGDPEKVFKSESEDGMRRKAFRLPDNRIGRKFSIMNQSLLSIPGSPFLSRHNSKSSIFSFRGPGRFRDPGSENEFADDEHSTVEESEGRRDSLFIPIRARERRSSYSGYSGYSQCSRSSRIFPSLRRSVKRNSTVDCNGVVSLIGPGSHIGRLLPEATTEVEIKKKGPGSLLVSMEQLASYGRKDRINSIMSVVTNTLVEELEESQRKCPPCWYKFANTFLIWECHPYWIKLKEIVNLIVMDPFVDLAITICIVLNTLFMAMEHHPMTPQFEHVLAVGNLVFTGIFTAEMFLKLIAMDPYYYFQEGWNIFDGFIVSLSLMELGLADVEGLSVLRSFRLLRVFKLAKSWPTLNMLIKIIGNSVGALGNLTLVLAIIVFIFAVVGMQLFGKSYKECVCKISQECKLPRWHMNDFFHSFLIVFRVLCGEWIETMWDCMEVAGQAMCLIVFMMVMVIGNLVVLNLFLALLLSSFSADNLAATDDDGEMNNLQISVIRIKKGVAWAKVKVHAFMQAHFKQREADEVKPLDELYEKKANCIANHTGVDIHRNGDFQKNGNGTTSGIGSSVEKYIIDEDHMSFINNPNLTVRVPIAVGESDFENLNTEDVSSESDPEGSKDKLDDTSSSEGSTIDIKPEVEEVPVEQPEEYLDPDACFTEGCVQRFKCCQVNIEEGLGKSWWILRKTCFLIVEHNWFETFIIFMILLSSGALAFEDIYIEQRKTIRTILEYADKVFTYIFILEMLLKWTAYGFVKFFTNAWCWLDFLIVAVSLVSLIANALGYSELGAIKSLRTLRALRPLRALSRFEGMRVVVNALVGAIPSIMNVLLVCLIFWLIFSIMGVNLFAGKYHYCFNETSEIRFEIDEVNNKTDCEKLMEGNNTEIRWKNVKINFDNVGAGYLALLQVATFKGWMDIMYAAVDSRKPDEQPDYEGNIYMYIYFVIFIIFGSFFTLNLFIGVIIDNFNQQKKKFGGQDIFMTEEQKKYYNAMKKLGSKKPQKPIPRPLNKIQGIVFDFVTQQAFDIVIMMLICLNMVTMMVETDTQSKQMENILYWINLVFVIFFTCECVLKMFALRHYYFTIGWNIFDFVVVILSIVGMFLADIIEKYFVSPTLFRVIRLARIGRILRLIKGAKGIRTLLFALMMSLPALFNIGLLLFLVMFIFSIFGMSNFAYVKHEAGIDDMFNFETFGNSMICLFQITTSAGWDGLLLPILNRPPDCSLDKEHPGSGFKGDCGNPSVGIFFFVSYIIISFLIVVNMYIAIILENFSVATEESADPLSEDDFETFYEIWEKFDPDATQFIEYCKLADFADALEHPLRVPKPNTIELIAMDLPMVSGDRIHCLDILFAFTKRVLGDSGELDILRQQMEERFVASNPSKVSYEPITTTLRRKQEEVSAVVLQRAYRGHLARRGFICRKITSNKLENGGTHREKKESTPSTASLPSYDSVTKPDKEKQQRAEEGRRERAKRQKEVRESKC

With Ac-DSKWKRDHSR-NH2 [Peptide D5K9], the “% block of NaV1.6” value at NaV1.6 was found to be 36.0 ± 0.7%. Further, the “% block of NaV1.2” value at NaV1.2 is 33.1 ± 0.9%.
